From patent publication US20260308158A1, “TARGETING RNAS ASSOCIATED WITH TAUOPATHIES WITH SMALL MOLECULES” (University of Florida Research Foundation, Incorporated, priority 2023, published 2026)

What was measured:
[1] = Body weight / tolerability, htau mice; type: in vivo, htau mouse; conditions: 100 mg/kg p.o. q.o.d., 20 days
From the text: (§1) hTau Mice Studies. htau mice and WT mice (C57BL/6J) were purchased from Jackson Laboratories. htau mice were maintained in-house through breeding between htau+/− mice. Genotype was confirmed by PCR amplification as previously described.^18 Only homozygous mice were used in in vivo studies. Mice were randomly assigned to a treatment group, which were age- and gender-matched (n=X). In these studies, mice were >9 months of age since cognitive and physiological impairments in htau mice was age-dependent and were not presented in young mice (<4 months) with early-stage tau pathology.^42 Mice were orally administered vehicle (5/5/90 DMSO/Tween-80/H2O) or 100 mg/kg of 2 in the same formulation every other day (q.o.d.). During the treatment period, nesting activity was assessed, as describe in Nesting Activity below. After 20 days, the mice were euthanized (in accordance with guidelines provided by the American Veterinarian Medical Association), and the brain was harvested for analysis. One hemisphere of the brain was frozen at −80° C. for RT-qPCR analyses while the other was used for histological studies.

WT model RNA = experiment: Optical melting, WT RNA; type: binding; conditions: 2 at 1.5 μM
Protocol: Optical Melting Experiments. The thermal stabilities of WT, DDPAC, and DDPAC+I17T model RNAs were analyzed by optical melting in the presence or absence of compound 1 or 2 as previously described.^18 The RNAs (2 μM) were heated to 95° C. in 1×PBS buffer and slowly cooled to room temperature. The samples were then cooled to 15° C. in the presence of compound 1 (10 μM; 0.1% (v/v) DMSO), 2 (1.5 μM; 0.1% (v/v) DMSO) or vehicle (0.1% (v/v) DMSO) and then heated to 85° C. at a rate of 1° C. per min. Absorbance as a function of temperature was measured at 260 nm using a Beckman Coulter DU800 UV/vis spectrophotometer. Melting curves were fitted with MeltWin 3.5.^31

[2] = Body weight / tolerability, WT mice; type: in vivo, WT mouse (C57BL/6J); conditions: 100 mg/kg p.o. q.o.d., 20 days
From the text: as §1

[3] = test system: endogenous MAPT pre-mRNA in LAN5 cells; experiment: Chem-CLIP / C-Chem-CLIP in LAN5 cells; type: cell-based; conditions: pre-incubation
Protocol: Measuring Cellular Occupancy by Chem-CLIP and C-Chem-CLIP. LAN5 cells were grown to ~80% confluency in 100 mm diameter dishes. HeLa cells were transfected as described in the Luciferase Reporter Assay to Study Exon 10 Alternative Splicing except they were re-plated in 100 mm diameter dishes and grown to ~80% confluency (~1 day). The cells were then treated with 1.5 μM of 3 or 4 for 12 h. For C-Chem-CLIP, dilutions of competing compounds 1 or 2 were pre-incubated with cells for 12 h prior to adding 3. After addition of 3, the cells were incubated for an additional 12 h. After the treatment period, whether for Chem-CLIP or C-Chem-CLIP studies, the cells were washed with 10 mL of 1×DPBS. Ice-cold 1×DPBS (10 mL) was then added to the plate followed by irradiation with 365 nm light in a UV Stratalinker 2400 (Stratagene). Cells were scraped with a cell scraper, transferred to a 15 mL conical vial, and collected by centrifugation. Total RNA was extracted using TRIzol LS Reagent (Invitrogen) per the manufacturer's protocol. […]
RT-qPCR was performed on RNA samples before and after pull-down as described in Real-Time Quantitative PCR to enable calculation of fold enrichment in the pulled down samples. Relative fold enrichment of tau pre-mRNA was measured using Equation 3: […]

[4] = test system: DDPAC MAPT mini-gene (exon 10 splicing); experiment: 4R/3R MAPT mRNA by RT-qPCR, HeLa cells transfected with DDPAC mini-gene; type: cell-based
Protocol: RNA Isolation and Real-Time Quantitative PCR (RT-qPCR). HeLa cells were treated as described in the Luciferase Reporter assay to Study Exon 10 Alternative Splicing. LAN5 cells were seeded in 12-well plates at 0.2×10^6 cells per well, treated with compound or ASO, and incubated for 48 h. Compound stocks prepared in DMSO and ASO stocks prepared in water were diluted in growth medium and added to cells. Total RNA was extracted from cells and analyzed via RT-qPCR to determine levels of 3R and 4R tau mRNA. In brief, the cells were washed with 1×DPBS and then lysed in the well using 300 μL of Lysis Buffer provided in a Quick-RNA MiniPrep kit (Zymo Research), which was used to extract total RNA per the manufacturer's protocol including the on-column DNase I digestion. The concentration of total RNA was measured by NanoDrop 2000 (Thermo Fisher Scientific). Only samples with OD260/OD280>1.8 were carried forward for analysis. Reverse transcription (RT) was carried out on 200 ng of total RNA using a qScript cDNA synthesis kit (QuantaBio) in a total volume of 10 μL according to the manufacturer's protocol. […] 4R/3R ratio were analyzed using ΔΔCt method using Equation 2: […]

Structure (SMILES): COc1cc(N)ncc1CCCN(C)CCCn1cnc2c3ccccc3n(C)c2c1=O [Compound 2, 3-(3-((3-(6-amino-4-methoxypyridin-3-yl)propyl)(methyl)amino)propyl)-5-methyl-3,5-dihydro-4H-pyrimido[5,4-b]indol-4-one]
- change in weight [1]: no change in the weight
- tolerability [1]: well tolerated
- increase of Tm (WT model RNA): 0.76±0.1 °C
- change in weight [2]: no change in the weight
- competition of cross-linking of 3 [3]: competed by 1 or 2 in dose dependent fashion
- PSI10 (PSI of MAPT exon 10) vs vehicle ([4]; HeLa, DDPAC mini-gene): downregulated
- inhibition at 1.5 µM ([4]; Homo sapiens, 2 at 1.5 μM, 48 h, HeLa DDPAC mini-gene, read-out: reduction of 4R/3R ratio (mRNA)): 42 ± 3%
